The structures appear in SMILES notation. “Also recorded” adds a separate entry of the source. Where two headings read alike, the source gives them in different places.

The results in this text go back to PMC5304334, “Antifouling potential of Nature-inspired sulfated compounds” (Scientific Reports, 2017).

The test system of series [1] is Mytilus galloprovincialis plantigrades. The series is described as follows: Anti-settlement bioassay with mussel plantigrades (effectiveness and mortality). Format: in vivo. As to conditions: for Anti-settlement activity in screening (result in words): 250 and 50 μM, p < 0.05 Dunnett; for EC50 / EC50, minimum concentration that inhibited 50% of larval settlement: plantigrades, 18 °C; for EC50: read-out: EC50, minimum concentration that inhibited 50% of larval settlement. Here is the method: (§1) M. galloprovincialis juvenile (0.5 cm shell length approximately) aggregates were collected from mussel beds from the intertidal rocky shore, during low neap tides at Memória beach, Matosinhos, Portugal (41°13′59″N; 8°43′28″W), and immediately transported to the laboratory. M. galloprovincialis plantigrade post-larvae (0.5–2 mm) were screened among the small mussel aggregates in a binocular magnifier (Olympus SZX2-ILLT), gently washed with filtered seawater to remove organic debris and sand particles and isolated in a petri dish with filtered seawater immediately before the bioassays.
(§2) For the screening bioassay, competent M. galloprovincialis plantigrades (showing exploring behavior, ie, moving their foot searching for the appropriate substrate to settle) were selected and exposed to the series of sulfated compounds 1–13 at two concentrations (250 and 50 μM) in 24-well microplates for 15 h, at 18 ± 1 °C, in the darkness. Bioassays time frame was selected based on preliminary bioassays to ensure that the response measured is reflecting the compounds effect. Test solutions were prepared in filtered seawater (previously treated by UV light, and carbon filters and mechanically filtered with […] filter before use) and obtained by dilution of the compounds stock solutions (50 mM) in ultra-pure water. Four well replicates were used per condition with five plantigrades per well and 2.5 mL of test solution. A negative control, with ultra-pure water was included in all bioassays, as well as a positive control with 5 μM CuSO4 (a potent AF agent). At the end of the exposure period, the anti-settlement activity was determined by the presence/absence of byssal threads produced by each individual efficiently attached for all the conditions tested.
(§3) Data from the anti-settlement and antibacterial screenings were analyzed using a one-way analysis of variance (ANOVA) followed by a Dunnett test against the control (p < 0.05). Semi-maximum response concentration that inhibited 50% larval settlement (EC50), semi-maximum response concentration that inhibited 20% bacterial growth (EC20) and the median lethal dose (LC50) for each bioactive compound were assessed using Probit regression analysis. Pearson Goodness-of-fit (Chi-Square) significance was considered at p < 0.05 for all analyses, and 95% lower and upper confidence limits [95% LCL; UCL] were presented. Therapeutic ratio (LC50/EC50) was used to evaluate the effectiveness vs toxicity of compounds[31][53][54]. The software IBM SPSS Statistics 21 was used for statistical analysis.

Series [2] relates to Vibrio fischeri (NRRL-B-11177). In words: Luminescent Vibrio fischeri ecotoxicity assay (ISO11348). The class given is cell-based. Conditions: for EC50: Aliivibrio fischeri. Here is the method: (§4) After 5, 15 and 30 min of exposure, the light emitted as a by-product of Vibrio fischeri cellular respiration was measured at 490 nm. Any inhibition of cellular activity results in a decreased rate of respiration and a corresponding decrease in the rate of luminescence. The decrease of bacterial luminescence measured after 5, 15 or 30 min of exposition was used as test endpoint. Luminescence was measured using a LUMIStox photometer from DR LANGE, after a contact time of 15 min and 30 min at 15 ± 1 °C, taking into account a correction factor, fk, which is a measure of intensity change of control samples during the exposure time.
(§5) The pH of all samples was within the interval 6.0–8.5.

The next series deals with Artemia salina nauplii. In words: Artemia salina nauplii lethality (ecotoxicity) test. The class given is in vivo. Here is the method:
Selected sulfated compounds with AF potential 2, 6, and 12 were tested for general toxicity to nontarget species using the brine shrimp (Artemia salina) nauplii lethality test[51]. Briefly, A. salina eggs were allowed to hatch in nutrient–enriched seawater as nauplii for approximately 48 h at 25 °C. Toxicity tests were performed in the darkness in 96-wells microplates with eight replicates per condition and 15–20 nauplii per well. Serial diluted test solutions of the most promising sulfated AF compounds (25, 50, and 250 μM) were prepared in filtered seawater. K2Cr2O7 (13.6 μM) was included as positive control and ultra-pure water as negative control. Percentage of mortality was determined at 48 h of exposure.

Series [3] relates to Agaricus bisporus tyrosinase. The series is described as follows: In vitro tyrosinase inhibition assay. Format: biochemical. As to conditions: 50 μM compound. Here is the method: Tyrosinase inhibition assays were conducted using Agaricus bisporus tyrosinase (EC 1.14.18.1) according to Adhikari et al.[50] with slight modifications. The enzymatic reaction follows the catalytic conversion of L-Dopa to dopaquinone and the formation of dopachrome by measuring the absorvance at 475 nm. Briefly, tyrosinase (25 U/mL) is added to 50 mM fosfate buffer pH 6.5 and the sulfated compound at 50 μM. The enzymatic activity was triggered by the addition of L-dopa (25 mM). Kojic acid was included as positive control and ultra-pure water as negative control.

A short description of series [4]: Anti-settlement bioassay with mussel plantigrades (effectiveness and mortality). As to conditions: Mytilus galloprovincialis, in vivo, other: immersion in test solution in filtered seawater; mortality of plantigrades, 15 h, up to 500 μM; read-out: LC50, the median lethal dose. The class given is in vivo, Mytilus galloprovincialis. Here is the method: as §1, §2, §3

A short description of series [5]: Seawater stability under AF assay conditions (HPLC-DAD). The class given is physicochemical. As to conditions: 250 μM in filtered seawater, 15 h, 18 °C. Here is the method: High performance liquid chromatography with Diode-Array Detection (HPLC-DAD) analyses were carried out on a System SMI Pump Series II (Gloucester, UK) equipped with a Rheodyne 7125 injector fitted with a 20 μL loop, a TSP-UV6000LP detector, and a Chromquest for Windows NT integrator and using a C-18 Nucleosil column (5 μm, 250 × 4.6 mm I.D.), from Macherey-Nagel (Düren, Germany); acetonitrile was of HPLC grade from Merck. HPLC ultrapure water was generated by a Milli-Q system (Millipore, Bedford, MA, USA). The mobile phase used was water with tetrabutylammonium bromide (TBAB, 25 mM) and acetonitrile (38:62) at a constant flow rate of 1.0 mL.min^−1. The mobile phase was filtered ([…]) and degassed for 15 min in an ultrasonic bath before use.
The seawater stability of the three most promising compounds 2, 6, and 12 in the time period (15 h) and temperature (18 °C) of the AF assay was evaluated by HPLC-DAD. Compounds were analyzed at 250 μM (final concentration) in filtered seawater ([…]). Incubations were performed in glass HPLC vials and three independent samples plus respective blank (filtered seawater) and controls (time zero - freshly prepared solutions of compounds) were analyzed.

The target in series [6] is T1, Electrophorus electric acetylcholinesterase Type V-S (Electrophorus electricus, UniProt O42275).
T1 construct: purchased SIGMA C2888
T1 sequence (O42275 24-633): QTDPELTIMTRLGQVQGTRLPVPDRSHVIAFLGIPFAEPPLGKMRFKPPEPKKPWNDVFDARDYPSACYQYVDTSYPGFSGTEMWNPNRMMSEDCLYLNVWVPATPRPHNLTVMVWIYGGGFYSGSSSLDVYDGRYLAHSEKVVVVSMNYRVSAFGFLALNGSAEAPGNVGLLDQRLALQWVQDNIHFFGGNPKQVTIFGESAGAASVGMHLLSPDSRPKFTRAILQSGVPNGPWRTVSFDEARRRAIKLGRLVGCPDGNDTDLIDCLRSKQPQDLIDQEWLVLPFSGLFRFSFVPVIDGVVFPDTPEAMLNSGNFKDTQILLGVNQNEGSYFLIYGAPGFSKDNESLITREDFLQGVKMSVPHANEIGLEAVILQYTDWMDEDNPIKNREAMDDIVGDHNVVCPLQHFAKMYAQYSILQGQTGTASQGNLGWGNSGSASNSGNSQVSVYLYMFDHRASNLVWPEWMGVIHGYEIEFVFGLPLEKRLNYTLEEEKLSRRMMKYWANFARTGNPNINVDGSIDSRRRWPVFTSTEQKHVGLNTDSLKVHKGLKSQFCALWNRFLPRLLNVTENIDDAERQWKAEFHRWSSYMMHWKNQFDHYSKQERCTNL
In words: In vitro acetylcholinesterase activity (Ellman). Format: biochemical. As to conditions: 50 μM compound. Here is the method:
The potential of compounds 2, 6 and 12 to inhibit acetylcholinesterases activity was evaluated using Electrophorus electric acetylcholinesterase Type V-S (SIGMA C2888, E.C. 3.1.1.7), according to Ellman et al.[47] with some modifications. Briefly, reaction solution containing phosphate buffer 1 M pH 7.2, dithiobisnitrobenzoate (DTNB) 10 mM (acid dithiobisnitrobenzoate and sodium hydrogen carbonate in phosphate buffer) and […] 0.075 M was added to pure acetylcholinesterase enzyme (0.25 U/mL) and each test sulfated compound (final concentration of 50 μM) in quadruplicate. The optical density was measured at 412 nm in a microplate reader during 5 min at 25 °C. A negative control (B) with ultra-pure water and a positive control (C+) with 20 mM eserine also included.
(DTNB colorimetry detects thiols as they appear.)

The nature of series [7]: Water solubility (statement in discussion). Format: physicochemical.
A short description of series [8]: Luminescent Vibrio fischeri ecotoxicity assay (ISO11348). Format: cell-based. As to conditions: Vibrio fischeri; read-out: LC50 Vibrio fischeri. Here is the method:
as §4, §5

Setting [9] is: V. fischeri luminescence, 30 min contact.

On to `C[C@@H]1O[C@@H](OC[C@H]2O[C@@H](Oc3c(-c4ccc(OCCOS(=O)(=O)O)c(OCCOS(=O)(=O)O)c4)oc4cc(OCCOS(=O)(=O)O)cc(O)c4c3=O)[C@H](OS(=O)(=O)O)[C@@H](OS(=O)(=O)O)[C@@H]2OS(=O)(=O)O)[C@H](OS(=O)(=O)O)[C@H](OS(=O)(=O)O)[C@H]1OS(=O)(=O)O` [Compound 3, 3″,4″-bis(2-sulfateethoxy)-7-(2-sulfateethoxy)-rutin 2″,2″′,3′,3″′,4′,4″′,7-sulfate], for which the “Anti-settlement activity in screening (result in words)” value (shortened to “Anti-settlement activity in screening”) in series [1] (15 h, versus negative control) is “did not show notable activity”.

For the compound `[K+].[K+].[O]=[Cr](=[O])([O-])[O][Cr](=[O])(=[O])[O-]` [K2Cr2O7, Potassium dichromate, reference compound], in series [2] (setting [9]), the “EC50 30min” value is 5.67 µg/mL and the “EC80 30min” value was determined as 16.73 µg/mL.

Regarding `O=C(O)c1cc(O)c(O)c(O)c1` [Compound 15, gallic acid, reference compound], the “Anti-settlement activity in screening” value in series [1] (15 h, versus negative control) was “did not show significant anti-settlement activity; also recorded: not active”.

What is called LC50 is the concentration that kills 50% of the test population. Take `O=C(O)c1cc(OS(=O)(=O)O)c(OS(=O)(=O)O)c(OS(=O)(=O)O)c1` [Compound 12, gallic acid persulfate]: in the series on Artemia salina nauplii (250 μM), the “Mortality of Artemia salina” value is below 10%. Besides, the “Mortality of A. salina nauplii” value with Artemia salina nauplii (25, 50, and 250 μM, 48 h) was “less than 10%”. Besides, in the series on Artemia salina nauplii (25, 50, and 250 μM, 48 h, versus negative control), the “Toxicity to A. salina” value was “no toxicity”. Besides, in series [3], the “Tyrosinase activity inhibition” value is “not inhibited”. Moreover, in series [4], the LC50 at 15 h is above 500 µM. Also, in [1] (15 h, versus negative control), the “Anti-settlement activity in screening” value is listed as “significant anti-settlement responses at 50 μM”. In addition, the EC50 was 17.7 µM in series [1] (Mytilus galloprovincialis, 15 h, 15 h, 1.56–500 μM); 8.95 µg/mL in series [1] (Mytilus galloprovincialis, 15 h, 15 h); above 1000 µg/mL in series [2] (NRRLB11177, 0.25 h, V. fischeri luminescence, 15 min contact, read-out: EC50 15min); above 1000 µg/mL in series [2] (NRRLB11177, 0.5 h, V. fischeri luminescence, 30 min contact, read-out: EC50 30min). Besides, in [1] (concentration-response 1.56–500 μM, versus negative control), the “Concentration range with significant anti-settlement activity” value lay within 12.5 to 500 µM. Also, the “EC50, minimum concentration that inhibited 50% of larval settlement” value in series [1] (15 h) worked out at 8.4 µg/mL. For the same compound, the “Concentration detected relative to the initial one (seawater stability)” value in series [5] is listed as “at least 95%”. The “Acetylcholinesterase activity inhibition” value in series [6] is “not inhibited”. The “Water solubility” value in series [7] is “highly water soluble”. Also, the CC50 in series [8] was above 1000 µg/mL. Besides, in series [2] (15 min or 30 min contact, up to 1000 mg/L), the “Inhibition of light radiation emitted by V. fischeri” value is recorded as “no inhibition of light radiation emitted was found; also recorded: lack of light radiation inhibition”.

As to `O=C(/C=C/c1ccc(OS(=O)(=O)O)c(OS(=O)(=O)O)c1)O[C@@H]1C[C@](OS(=O)(=O)O)(C(=O)O)C[C@@H](OS(=O)(=O)O)[C@H]1OS(=O)(=O)O` [Compound 13, chlorogenic acid persulfate], the “Anti-settlement activity in screening” value in series [1] (15 h, versus negative control) is listed as “much less potent than compound 12”.

Regarding `O=c1c2ccc(OCc3cn([C@@H]4O[C@H](COS(=O)(=O)O)[C@H](OS(=O)(=O)O)[C@H](OS(=O)(=O)O)[C@H]4OS(=O)(=O)O)nn3)cc2oc2cc(OCc3cn([C@@H]4O[C@H](COS(=O)(=O)O)[C@H](OS(=O)(=O)O)[C@H](OS(=O)(=O)O)[C@H]4OS(=O)(=O)O)nn3)ccc12` [Compound 7, 3,6-bis(1-(1-(β-D-galatopyranosyl)-1H-1,2,3-triazole-4-yl)methoxy)xanthone persulfate], the “Anti-settlement activity in screening” value in series [1] (15 h, versus negative control) is “not active”.

In the case of `C[C@@H]1O[C@@H](OC[C@H]2O[C@@H](Oc3c(-c4ccc(O)c(O)c4)oc4cc(O)cc(O)c4c3=O)[C@H](O)[C@@H](O)[C@@H]2O)[C@H](O)[C@H](O)[C@H]1O` [Compound 14, rutin, reference compound], the “Anti-settlement activity in screening” value in [1] (15 h, versus negative control) is “did not show significant anti-settlement activity; also recorded: not active”.

For `N#Cc1c(-c2ccc(Cl)cc2)[nH]c(C(F)(F)F)c1Br` [ECONEA®], the “Mortality/toxicity to target species plantigrades” value in [1] (all tested concentrations up to 500 μM) was “showed some toxicity at the higher concentrations tested”. The median lethal concentration (LC50) in [1] (mortality of plantigrades, 15 h, up to 500 μM, read-out: LC50, the median lethal dose) is 108 µM. The “EC50, minimum concentration that inhibited 50% of larval settlement” value in series [1] (15 h) was 1.40 µg/mL. In [1] (15 h, 1.56–500 μM), the EC50 came to 4.01 µM.
